Results from patent publication US5047406A, “Substituted cyclohexanols as central nervous system agents” (Warner-Lambert Co., priority 1990, dated 1991).
Read-outs that look alike come from different tables or passages of the source.

How the values were obtained:
[1] = system: Brain Striatal Dopamine Synthesis; test: Effects on brain striatal dopamine synthesis in rats; format: in vivo; conditions: for inhibition in vivo at 10 mg/kg: Rattus norvegicus; for Effects on Brain Striatal Dopamine Synthesis in Rats, % inhibition: 10 mg/kg
From the text: (§1) The above test methods are incorporated herein by reference.

[2] = molecular target: T1, [^3 H]-Spiroperidol Binding (Homo sapiens, UniProt P14416); test: Inhibition of [^3 H]-spiroperidol binding in a receptor assay
T1 construct: receptor assay described by D. Grigoriadis and P. Seeman, Journal of Neurochemistry, Volume 44, pages 1925-1935 (1985); from tissue
From the text: as §1

[3] = system: Locomotor Activity in Mice; test: Inhibition of locomotor activity in mice; format: in vivo; conditions: for ED50: Mus musculus, ip; for Inhibition of Locomotor Activity in Mice ED50: IP
From the text: as §1

[4] = molecular target: sigma opiate binding site; test: Inhibition of [^3 H] DTG (ditoluoyl guanidine; a sigma ligand) binding
Procedure: The compounds of Formula I are valuable dopaminergic agents. […] Thus, the compounds of Formula I were tested for their ability to inhibit locomotor activity in mice according to the assay described by J. R. McLean, et al, Pharmacology, Biochemistry and Behavior, Volume 8, pages 97-99 (1978); for their ability to inhibit [[…] ]-spiroperidol binding in a receptor assay described by D. Grigoriadis and P. Seeman, Journal of Neurochemistry, Volume 44, pages 1925-1935 (1985); and for their ability to inhibit dopamine synthesis in rats according to the protocol described by J. R. Walters and R. H. Roth, Naunyn-Schmiedeberg's Archives of Pharmacology, Volume 296, pages 5-14 (1976). The above test methods are incorporated herein by reference. The data in the table show the dopaminergic activity of representative compounds of Formula I. Additionally, the compounds of Formula I are ligands for the sigma opiate binding site. The data in the table show the inhibition of [^3 H] DTG (ditoluoyl guanidine; a sigma ligand) binding by representative compounds of Formula I, according to the method of E. Weber, et al, Proceedings of the National Academy of Sciences, USA, Volume 83, pages 8784-8788 (1986).

[5] = read-out: Inhibition of [^3 H]-Spiroperidol Binding IC50
[6] = Inhibition of [^3 H]-Spiroperidol Binding IC50

T1 sequence (P14416 whole entry): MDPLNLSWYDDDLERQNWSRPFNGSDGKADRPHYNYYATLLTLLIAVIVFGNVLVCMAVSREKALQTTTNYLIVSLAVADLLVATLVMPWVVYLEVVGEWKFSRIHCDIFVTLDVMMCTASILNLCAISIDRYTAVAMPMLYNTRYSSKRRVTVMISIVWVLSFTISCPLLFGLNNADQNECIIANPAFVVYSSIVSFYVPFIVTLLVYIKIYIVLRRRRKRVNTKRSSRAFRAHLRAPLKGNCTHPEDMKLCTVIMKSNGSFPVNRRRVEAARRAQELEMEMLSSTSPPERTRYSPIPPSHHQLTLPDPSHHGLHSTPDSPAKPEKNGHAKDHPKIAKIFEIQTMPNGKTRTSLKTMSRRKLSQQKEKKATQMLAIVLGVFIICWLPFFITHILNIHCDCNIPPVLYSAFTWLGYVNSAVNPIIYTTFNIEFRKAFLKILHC

| SMILES | IC50 [2, 5] | inhibition in vivo at 10 mg/kg ([1]; IP) | ED50 [3] | inhibition in vivo at 10 mg/kg ([1]; ip) | also measured |
| --- | --- | --- | --- | --- | --- |
| O=C(N[C@H]1CC[C@H](N2CC=C(c3ccccc3)CC2)CC1)c1ccccc1 [Example 46, trans N-[4-(3,6-Dihydro-4-phenyl-1(2H)-pyridinyl)cyclohexyl]benzamide] | 360 nM | 95% | 0.16 mg/kg |  |  |
| OC1(c2cccs2)CCC(CCN2CCN(c3ccccn3)CC2)CC1 (stereo not drawn) [Example 4, trans-4-[2-[4-(2-Pyridinyl)-1-piperazinyl]ethyl]-1-(2-thienyl)cyclohexanol] | 341 nM |  |  |  | Effects on Brain Striatal Dopamine Synthesis in Rats, % inhibition ([1]; IP): 47%; Inhibition of Locomotor Activity in Mice ED50 [3]: 1.1 mg/kg; IC50 [4]: 5 nM |
| OC1(c2cccnc2)CCC(CCN2CC=C(c3ccccc3)CC2)CC1 (stereo not drawn) [Example 12, cis-1-(3-Pyridinyl)-4-[2-[3,6-dihydro-4-phenyl-1(2H)-pyridinyl]ethyl]cyclohexanol] | 116 nM | 79% | 0.25 mg/kg |  |  |
| O=C(N[C@H]1CC[C@H](CCN2CCN(c3ccccn3)CC2)CC1)c1ccc(Cl)c(Cl)c1 [Example 59, trans 3,4-Dichloro-N-[4-[2-[4-(2-pyridinyl)-1-piperazinyl]ethyl]cyclohexyl]benzamide] |  |  | 14.4 mg/kg | 7% |  |
| OC1(c2ccccn2)CCC(CCN2CC=C(c3ccccc3)CC2)CC1 (stereo not drawn) [Example 11, cis-1-(2-Pyridinyl)-4-[2-[3,6-dihydro-4-phenyl-1(2H)-pyridinyl]ethyl]cyclohexanol] | 156 nM |  | 0.64 mg/kg |  | IC50 [4]: 3.5 nM |
| O=C(N[C@H]1CC[C@H](CCN2CC=C(c3ccccc3)CC2)CC1)c1ccccc1 [Example 72, trans N-[4-[2-(3,6-Dihydro-4-phenyl-1(2H)-pyridinyl)ethyl]cyclohexyl]benzamide] |  | 74% | 0.27 mg/kg |  | IC50 [2, 6]: 100 nM |
| O=C(N[C@H]1CC[C@H](N2CCN(c3ccccn3)CC2)CC1)c1ccccc1 [Example 40, trans N-[4-[4-(2-Pyridinyl)-1-piperazinyl]cyclohexyl]benzamide] | 2800 nM |  | 0.36 mg/kg | 65% |  |
| O=C(N[C@H]1CC[C@H](CN2CCN(c3ccccn3)CC2)CC1)c1ccccc1 [Example 60, trans N-[4-[[4-(2-Pyridinyl)-1-piperazinyl]methyl]cyclohexyl]benzamide] |  |  | 1 mg/kg | 36% |  |
| OC1(c2ccccc2)CCC(CCN2CCN(c3ccccn3)CC2)CC1 (stereo not shown) [Example 5, 1-Phenyl-4-[2-[4-(2-pyridinyl)-1-piperazinyl]ethyl]cyclohexanol] | 537 nM |  | 1.8 mg/kg | 35% |  |
| OC1(c2ccc(F)cc2)CCC(CCN2CCN(c3ccccn3)CC2)CC1 (stereo not shown) [Example 7, 1-(4-Fluorophenyl)-4-[2-[4-(2-pyridinyl)-1-piperazinyl]ethyl]cyclohexanol] |  |  | 0.64 mg/kg | 48% | inhibition at 10 µM ([2]; at 10^-5 M): 94%; IC50 [4]: 16.5 nM |
| O=C(N[C@H]1CC[C@H](CCN2CC=C(c3ccccc3)CC2)CC1)c1cccs1 [Example 71, trans N-[4-[2-(3,6-Dihydro-4-phenyl-1(2H)-pyridinyl)ethyl]cyclohexyl]-2-thiophenecarboxamide] | 210 nM | 79% | 0.21 mg/kg |  |  |
| O=C(N[C@H]1CC[C@H](N2CC=C(c3ccccc3)CC2)CC1)c1ccsc1 [Example 48, trans N-[4-(3,6-Dihydro-4-phenyl-1(2H)-pyridinyl)cyclohexyl]-3-thiophenecarboxamide] |  | 88% | 0.27 mg/kg |  | IC50 [2, 6]: 90 nM |
| O=C(N[C@H]1CC[C@H](N2CC=C(c3ccccc3)CC2)CC1)c1cccs1 [Example 47, trans N-[4-(3,6-Dihydro-4-phenyl-1(2H)-pyridinyl)cyclohexyl]-2-thiophenecarboxamide] | 300 nM | 74% | 0.23 mg/kg |  |  |
| CC(=O)N[C@H]1CC[C@H](CCN2CCN(c3ccccn3)CC2)CC1 [Example 58, trans N-[4-[2-[4-(2-Pyridinyl)-1-piperazinyl]ethyl]cyclohexyl]acetamide] |  |  | 0.03 mg/kg | 87% |  |
| O=C(N[C@H]1CC[C@H](N2CC=C(c3ccccc3)CC2)CC1)c1cccnc1 [Example 49, trans N-[4-(3,6-Dihydro-4-phenyl-1(2H)-pyridinyl)cyclohexyl]-3-pyridinecarboxamide] | 600 nM | 72% | 2.4 mg/kg |  |  |

Second part, led by results:

| IC50 [2, 5] | SMILES | inhibition in vivo at 10 mg/kg ([1]; IP) | ED50 [3] | inhibition in vivo at 10 mg/kg ([1]; ip) | also measured |
| --- | --- | --- | --- | --- | --- |
| 290 nM | Cc1ccc(C(=O)N[C@H]2CC[C@H](CCN3CCN(c4ccccn4)CC3)CC2)cc1 [Example 54, trans 4-Methyl-N-[4-[2-[4-(2-pyridinyl)-1-piperazinyl]ethyl]cyclohexyl]benzamide] |  | 0.11 mg/kg | 0% |  |
| 3280 nM | O=C(N[C@H]1CC[C@@H](CCN2CCN(c3ccccn3)CC2)CC1)c1ccccc1 [Example 53, cis N-[4-[2-[4-(2-Pyridinyl)-1-piperazinyl]ethyl]cyclohexyl]benzamide] |  | 4.5 mg/kg | 36% |  |
| 262 nM | OC1(c2cccs2)CCC(CCN2CCN(c3ccccn3)CC2)CC1 (stereo not drawn) [Example 3, cis-4-[2-[4-(2-Pyridinyl)-1-piperazinyl]ethyl]-1-(2-thienyl)cyclohexanol] |  | 1.3 mg/kg | 67% | IC50 [4]: 6 nM |
| 169 nM | COc1ccc(C2(O)CCC(CCN3CCN(c4ccccn4)CC3)CC2)cc1 (stereo not drawn) [Example 8, cis-1-(4-Methoxyphenyl)-4-[2-[4-(2-pyridinyl)-1-piperazinyl]ethyl]cyclohexanol] |  |  |  | Effects on Brain Striatal Dopamine Synthesis in Rats, % inhibition ([1]; IP): 88%; Inhibition of Locomotor Activity in Mice ED50 [3]: 0.9 mg/kg |
| 312 nM | OC1(c2ccsc2)CCC(CCN2CCN(c3ccccn3)CC2)CC1 (stereo not shown) [Example 14, 4-[2-[4-(2-Pyridinyl)-1-piperazinyl]ethyl]-1-(3-thienyl)cyclohexanol] |  | 0.48 mg/kg | 37% | IC50 [4]: 4.5 nM |
| 4840 nM | CN(C(=O)c1ccccc1)[C@H]1CC[C@H](N2CCN(c3ccccn3)CC2)CC1 [Example 42, trans N-Methyl-N-[4-[4-(2-pyridinyl)-1-piperazinyl]cyclohexyl]benzamide] |  | 2.4 mg/kg | 15% |  |
| 440 nM | O=C(N[C@H]1CC[C@H](CCN2CCN(c3ccccn3)CC2)CC1)c1ccccc1 [Example 52, trans N-[4-[2-[4-(2-Pyridinyl)-1-piperazinyl]ethyl]cyclohexyl]benzamide] |  | 0.16 mg/kg | 87% |  |
| 932 nM | COc1ccc(C2(O)CCC(CCN3CCN(c4ccccn4)CC3)CC2)cc1 (stereo not drawn) [Example 15, trans-1-(4-Methoxyphenyl)-4-[2-[4-(2-pyridinyl)-1-piperazinyl]ethyl]cyclohexanol] |  |  |  | Effects on Brain Striatal Dopamine Synthesis in Rats, % inhibition ([1]; IP): 52%; Inhibition of Locomotor Activity in Mice ED50 [3]: 0.3 mg/kg |
